Our source for the TGI and GI50 values is PubChem BioAssay (NCI).

What all share (experiment): NCI anticancer screen, dose series, 48 h
The test system of assay [1] is 786-0 renal.
For assay [2], the system named is COLO 205 colon.
Assay [3] deals with HL-60(TB) leukemia.
Assay [4] has as its system SK-MEL-28 melanoma.
Assay [5] has as its system SN12C renal.
Assay [6] has as its system SR leukemia.
In assay [7] the test system is UO-31 renal.
Assay [8] concerns A498 renal.
The subject of assay [9] is BT-549 breast.
For assay [10], the system named is OVCAR-4 ovarian.
In assay [11] the test system is MDA-MB-231 breast.

The structures appear in SMILES notation.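 Step 1: Grow cells in 96-well plates. Step 2: Expose to compound for 48 hours at 5 concentrations. Step 3: Interpolate endpoints linearly; if unreached, use highest concentration. Abbreviation: GI50, concentration required for 50% inhibition of growth. TGI denotes the concentration required for complete inhibition of growth.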 Where only a bound is given, the exact number is not on record here.

For the compound `[N-]=[N+]=NC(c1cn(C2CC(O)C(CO)O2)c(=O)[nH]c1=O)C(Br)I` (configuration not stated), the TGI in assay [1], in [2], in [3], in [4], in assay [5] and in [6] was more than 100 µM each time. The same compound had a TGI in assay [7] of more than 100 µM.

On to `COC(=O)c1c(C)cccc1C1CN=NC12Cc1cccc(C)c1C2=O` (configuration not stated), for which the TGI in assay [1] is more than 100 µM; in [8] it was more than 100 µM; in assay [9], 88.6 µM; in assay [2], more than 100 µM; in [3], 33.6 µM; in assay [10] it was more than 100 µM. Moreover, the TGI in [4] was more than 100 µM; in [5], more than 100 µM; in [6] it was more than 100 µM; in assay [7], 67.7 µM.

`COc1ccccc1NC(=O)CSC(N)=O`: the TGI is 36.6 µM in assay [1]; more than 100 µM in assay [8]; more than 100 µM in assay [2]; more than 100 µM in [3]; more than 100 µM in assay [10]; more than 100 µM in [4]. Besides, the TGI in [5] and in [6] was more than 100 µM each time.

Regarding `C=C1C(=O)O[C@H]2[C@H]1CC/C(COC(=O)/C=C/C(=O)OC/C1=C/CC[C@@]3(C)O[C@H]3[C@H]3OC(=O)C(=C)[C@@H]3CC1)=C\CC[C@@]1(C)O[C@@H]21`, the GI50 is more than 100 µM in assay [8]; 1.58 µM in assay [9]; 0.351 µM in assay [2]; 1.56 µM in assay [4]; 1.49 µM in [5]. The TGI in [8] is more than 100 µM; in assay [9] it was 4.41 µM; in [2], 1.24 µM; in [4], 4.13 µM; in assay [5], 4.04 µM.

As to `Cc1c(Cl)c(=O)oc2cc(OCC(O)COC(C)C)ccc12` (configuration not stated), the TGI was more than 100 µM in assay [1]; 47.8 µM in assay [2]; 56.9 µM in assay [3]; more than 100 µM in assay [10]; more than 100 µM in assay [4]; 73.2 µM in assay [6]. This compound also showed a TGI in [7] of more than 100 µM.

In the case of `COC(C[C@H]1CCCC[C@]1(O)/C(=C\CO[Si](C(C)C)(C(C)C)C(C)C)Sc1ccccc1)OC`, the TGI was more than 100 µM in assay [1]; more than 100 µM in assay [8]; 47.4 µM in [2]; more than 100 µM in assay [3]; 49.8 µM in assay [11]; more than 100 µM in assay [10]. Besides, the TGI is more than 100 µM in assay [4], more than 100 µM in [5], 46.5 µM in assay [6] and more than 100 µM in assay [7].

As to `CCC(=O)Nc1ccc(N2C(=O)/C(=C/c3ccc(O)c(OC)c3)N=C2c2ccccc2)cc1`, the TGI was 95.6 µM in assay [1]; 36.6 µM in [8]; 44.9 µM in assay [9]; more than 100 µM in [3]; more than 100 µM in assay [10]; more than 100 µM in assay [4]. For the same compound, the TGI in [5], in assay [6] and in [7] was more than 100 µM in each case.

With `CCCCN(CCCC)C1=Nc2ccccc2-n2c(nnc2C(=O)OCC)C1`, the TGI in assay [1] is more than 100 µM; in assay [2], 36.2 µM; in assay [3] it was 40.9 µM; in assay [11], more than 100 µM; in assay [10], more than 100 µM; in [4], more than 100 µM. In addition, the figures for the TGI in assay [5], in [6] and in assay [7] were more than 100 µM, 56.3 µM and more than 100 µM, respectively.

`CCOC(=O)CC(=O)Sc1ccccc1`: the TGI in assay [1] is 37 µM; in assay [8], 57.4 µM; in assay [2], 52.9 µM; in assay [3], 48.6 µM; in assay [10], more than 100 µM; in assay [4] it was 35 µM. Further, the TGI in [5] worked out at 24.6 µM; in assay [6], 58.1 µM; in assay [7] it was 28.4 µM.

In the case of `Cc1cccc(=O)c([O-])c1.Cc1cccc(=O)c([O-])c1.Cc1cccc(=O)c([O-])c1.Cc1cccc(=O)c([O-])c1.[Th+4]`, the TGI in assay [1] is more than 78.5 µM; in assay [8], 81.6 µM; in assay [2], more than 100 µM; in assay [3], 4.18 µM; in assay [10] it was more than 100 µM; in assay [4], more than 100 µM. Further, the TGI in assay [5], in [6] and in assay [7] was more than 100 µM in each case.

For the compound `O=C(NCCNCCO)N/N=C/c1ccccc1`, the TGI in [1], in assay [3], in [10], in assay [4] and in [5] was more than 100 µM throughout.

As to `CC(=O)Nc1ccc(C(=O)N2N=C(C)/C(=C/c3ccccc3O)C2=O)cc1`, the TGI in assay [1], in [2], in assay [3], in assay [10], in [4] and in [5] was more than 100 µM in each case. Moreover, the TGI in assay [6] and in assay [7] was more than 100 µM in each case.

With `CCCCCCCCCCC[N+]1(Cc2ccccc2)CC2CCN(Cc3ccccc3)CC2C1` (configuration not stated), the TGI in [1] stood at 2.21 µM; in assay [8], 2.88 µM; in assay [9], 1.4 µM; in assay [2], 2.18 µM; in assay [3] it was 0.277 µM; in assay [10], 2.02 µM. In addition, the TGI in assay [4] was 1.95 µM; in [5], 1.5 µM; in [6] it was 1.07 µM; in assay [7], 2.56 µM.

For `CC(C)C(=O)/C=C/c1ccccc1`, the TGI in [1], in assay [8], in assay [2], in [3], in [10] and in [4] was more than 100 µM in each case. Moreover, the TGI in assay [5], in [6] and in assay [7] was more than 100 µM each time.

For the compound `COc1c(-c2ccc(F)cc2)oc2cc(O)cc(O)c2c1=O`, the TGI in [1] was 99.2 µM; in [8], more than 100 µM; in assay [2], 36.7 µM; in [3], 70.1 µM; in assay [11], 43.9 µM; in assay [4], more than 100 µM. Further, the TGI was 83.6 µM in assay [5], more than 100 µM in assay [6] and 42.1 µM in [7].

Take `O=C1C(Cl)C(c2cccc(O)c2)N1n1cnc2ccccc2c1=O` (configuration not stated): the TGI in assay [1], in [2], in [3], in assay [10], in assay [4] and in [5] was more than 100 µM each time. In addition, the TGI in assay [6] and in assay [7] was more than 100 µM in each case.

On to `O=c1n(C2CCCCC2)c(=C(Cl)Cl)c(=C(Cl)Cl)n1C1CCCCC1`, for which the TGI in assay [1], in assay [8], in assay [2], in assay [3], in assay [10] and in assay [4] was more than 100 µM throughout. The TGI in [5], in [6] and in assay [7] was more than 100 µM in each case.

For `COc1ccc(C[C@H]2COC(=O)[C@@H]2Cc2ccccc2)cc1OC`, the TGI in [1], in assay [8], in [11], in assay [4], in [5] and in assay [6] was more than 100 µM each time.

Consider `O=c1[nH]nc(N/N=C\c2ccc(Cl)cc2)c2ccccc12`, for which the TGI in assay [1] was 30.6 µM; in assay [8] it was 51.2 µM; in assay [2], 45.9 µM; in assay [3], more than 100 µM; in assay [11], 43.7 µM; in [10] it was more than 100 µM. Also, the TGI in [4] is 56.9 µM; in assay [5], 73 µM; in assay [6] it was 58.2 µM; in [7] it was 38.7 µM.

Turning to `CC(C)NCCNC(=O)c1ccccc1Nc1c(Cl)cccc1Cl`, the TGI in assay [1] worked out at 16 µM; in assay [2], 24.9 µM; in assay [3], 24.8 µM; in assay [10] it was 30.3 µM; in assay [4], 28.1 µM; in assay [5] it was 26.8 µM. Besides, the TGI in [6] was found to be 26.8 µM; in assay [7] it was 21.8 µM.

Consider `COc1ccc(C2C3=CONC3CC3CCCCC32)cc1` (configuration not stated), for which the TGI in [1], in assay [9], in [3], in assay [10], in assay [4] and in [6] was more than 100 µM in each case. The TGI in [7] was more than 100 µM.

As for `COc1ccc2c3c([nH]c2c1)-c1nc2ccccc2c(=O)n1CC3`, the TGI in assay [1], in [2], in [3], in [11], in assay [10] and in assay [4] was more than 25 µM in each case. The TGI in assay [5], in assay [6] and in assay [7] was more than 25 µM throughout. In [10], the GI50 is more than 25 µM.

`CC(=O)CCCCCCCCCCCC[C@@H]1CC[C@H](C)[C@H](O)N1`: the TGI in assay [1], in assay [2], in [3], in assay [4], in [6] and in assay [7] was more than 100 µM each time.

As for `Cn1c(O)c(/C=N/c2ncccn2)c(=O)[nH]c1=O`, the TGI in assay [1], in assay [8], in assay [2], in assay [3], in [11] and in [10] was more than 100 µM each time. Besides, the TGI in [4], in [5] and in assay [7] was more than 100 µM in each case.

Take `COc1ccc(C(=O)/C=C/c2ccc(OCCCOc3ccc(/C=C/C(=O)c4ccc(OC)c(OC)c4)cc3)cc2)cc1OC`: the TGI in [1], in [2], in assay [3], in assay [11], in [10] and in [4] was more than 100 µM each time. The TGI in assay [5], in assay [6] and in [7] was more than 100 µM throughout.

Turning to `O=[N+]([O-])c1cccc([N+](=O)[O-])c1Cl`, the TGI was more than 100 µM in assay [1]; 38.8 µM in assay [8]; 91.2 µM in assay [2]; 24.2 µM in assay [3]; 51.7 µM in [11]; 45.6 µM in [10]. The TGI in assay [4] is 42 µM; in assay [5] it was 79.9 µM; in [6] it was more than 100 µM; in assay [7] it was 2.86 µM.

In the case of `CN1C(=O)C(CCO)(C(C)(C)C)c2ccccc21` (configuration not stated), the TGI in assay [1], in [2], in [3], in assay [11], in assay [10] and in [4] was more than 100 µM throughout. Further, the TGI in assay [5], in assay [6] and in [7] was more than 100 µM throughout.

As to `Cc1ccc(C2(N3CCOCC3)OC(C)(C)c3cccc4cccc2c34)cc1` (configuration not stated), the TGI in assay [1] was 32.4 µM; in assay [8] it was 32.9 µM; in assay [9], 33.6 µM; in assay [2], 31 µM; in assay [3] it was more than 100 µM; in assay [10], 31.1 µM. Further, the TGI was 32.5 µM in [5], more than 100 µM in [6] and 31 µM in assay [7].

`COc1ccc(/C=N/N=C(\N)NO)c(OC)c1OC`: the TGI in assay [1] was more than 100 µM; in [8] it was 77.6 µM; in assay [2], more than 100 µM; in [3] it was 45.8 µM; in assay [11], more than 100 µM; in assay [10] it was more than 100 µM. Besides, the TGI in [4] is more than 100 µM; in [5] it was more than 100 µM; in assay [6], 74.5 µM; in assay [7], 91.9 µM.

`N#CC(NNC(=O)c1ccccc1O)c1ccc(O)cc1` (configuration not stated): the TGI in assay [1] is more than 100 µM; in assay [2], more than 100 µM; in [3], 74.9 µM; in [10], more than 100 µM; in [4] it was more than 100 µM; in assay [5] it was more than 100 µM. The TGI in assay [6] is more than 100 µM; in assay [7] it was 11.9 µM.
